Peptide text beside a SMILES is read from it. * marks the point of attachment. X1 = O=C(CCCCCN1C(=O)CC(*)C1=O)NCCCC(O)(P(=O)(O)O)P(=O)(O)O; X2 = O=P(O)(O)SCCNCCCN*
Tests used:
[1] = biological target: matrix metalloproteinase 9 (MMP9) (Homo sapiens, UniProt P14780); assay: In vitro matrix metalloproteinase-based conjugate cleavage; format: biochemical; conditions: isolated enzyme, MMP9, 37° C., up to 20 h, read-out: T1/2 of cleavage (converted)
Experimental: In this exemplary representative cleavage experiment, a 90 μL stock solution of protective drug conjugate (1 mg/mL) was mixed with 2 μL of matrix metalloproteinase 9 (MMP9) (10 unit/μL) and 8.2 μL of 50 mM CaCl2 solution, followed by incubation at 37° C. for up to 20 h. A 10 μL sample was taken at 0.3, 1, 2, 4, 9, or 20 h for the HPLC analysis. Three conjugates having different peptide sequences (Conjugates 1-3) were used in this test: Conjugate 1-peptide sequence of CPLSLYAL (SEQ ID NO: 65); Conjugate 2-peptide sequence of CPLSLYSL (SEQ ID NO: 66); and Conjugate 3-peptide sequence of CPLGLAL (SEQ ID NO: 67). The concentrations of the conjugate residual in samples were normalized and presented as cleavage ratios.

[2] = Conjugate cleavage in fresh bone marrow aspirate (HPLC); format: in vitro ADME; conditions: fresh bone marrow aspirate; human bone marrow aspirate, same donor, 37° C., up to 6 h; read-out: time to reach 50% conjugate cleavage (converted)
Experimental: The proteolytic cleavage of conjugates determines the therapeutic window, which is controlled by the specific peptide sequence. In a representative cleavage experiment, a […] stock solution of a conjugate (30 mg/mL) was mixed with 90 μL of fresh bone marrow aspirate, followed by incubation at 37° C. for up to 6 h. A 10 μL sample was taken every hour, diluted in 90 μL acetonitrile to precipitate proteins and extract conjugates and cleavage products. The concentrations of the conjugates in samples were determined by HPLC, normalized, and presented as the cleavage ratio.

[3] = tested on: CD2F1 male mice; assay: In vivo radioprotective effects: 30-day survival after Cobalt-60 gamma irradiation; conditions: 24 h before 9.2 Gy
Experimental: (§1) CD2F1 male mice (N=16) were subcutaneously (sc) injected with a single dose of two different conjugates. For one protective drug conjugate (Conjugate 1), the tested doses were 200, 400, and 800 mg/kg. The structure of Conjugate 1 included amifostine as the protective drug, alendronate as the bone-targeting ligand, and a protease-cleavable peptide having the sequence of CKPLGLWAL (SEQ ID NO: 33) with acetylation at the N-terminus (e.g., AcCKPLGLWAL; SEQ ID NO: 74). […] The irradiated mice were monitored for survival for 30 days post-irradiation. […] For the vehicle control group, the mortalities of mice occurred during 8 to 17 days post-irradiation, and the final survival rate was 6.25% (1 out of 16 survived), indicating significant mortality by gamma-irradiation.
For another protective drug conjugate (Conjugate 2), the tested doses were 250, 500, 600, and 700 mg/kg, and the irradiation was conducted at 24 h post-drug administration. The structure of Conjugate 2 included amifostine as the protective drug, alendronate as the bone-targeting ligand, and a protease-cleavable peptide having the sequence of CPLGLYAL (SEQ ID NO: 29) with acetylation at the N-terminus (e.g., AcCPLGLYAL; SEQ ID NO: 76).
as §1, with “a” for “two different conjugates. For one”, “1), and” for “1),”, “250, 300,” for “200, 400,”, “350” for “800”, “0% (0” for “6.25% (1”
as §1, with “CD2F1 male mice (N=16) were subcutaneously (sc) injected CD2F1” for “CD2F1”, “a” for “two different conjugates. For one”, “1), and” for “1),”, “250, 300,” for “200, 400,”, “350” for “800”
CD2F1 male mice (N=16) were subcutaneously (sc) injected CD2F1 male mice (N=16) were subcutaneously (sc) injected with a single dose of a protective drug conjugate (Conjugate 1), and the tested doses were 50, 100, and 200 mg/kg. The structure of Conjugate 1 included amifostine as the protective drug, alendronate as the bone-targeting ligand, and a protease-cleavable peptide having the sequence of CKPLGLWAL (SEQ ID NO: 33) with acetylation at the N-terminus (e.g., AcCKPLGLWAL; SEQ ID NO: 74). […] The irradiated mice were monitored for survival for […] post-irradiation. […] For the vehicle control group, the mortalities of mice occurred during 8 to 17 days post-irradiation, and the final survival rate was 0% (0 out of 16 survived), indicating significant mortality by gamma-irradiation.
CD2F1 male mice (N=16) were subcutaneously (sc) injected CD2F1 male mice (N=16) were subcutaneously (sc) injected with a single dose of a protective drug conjugate, i.e., Conjugate 3. The tested doses were 250, 300, and 350 mg/kg. […]

matrix metalloproteinase 9 (MMP9), sequence (P14780 94-707, species assumed): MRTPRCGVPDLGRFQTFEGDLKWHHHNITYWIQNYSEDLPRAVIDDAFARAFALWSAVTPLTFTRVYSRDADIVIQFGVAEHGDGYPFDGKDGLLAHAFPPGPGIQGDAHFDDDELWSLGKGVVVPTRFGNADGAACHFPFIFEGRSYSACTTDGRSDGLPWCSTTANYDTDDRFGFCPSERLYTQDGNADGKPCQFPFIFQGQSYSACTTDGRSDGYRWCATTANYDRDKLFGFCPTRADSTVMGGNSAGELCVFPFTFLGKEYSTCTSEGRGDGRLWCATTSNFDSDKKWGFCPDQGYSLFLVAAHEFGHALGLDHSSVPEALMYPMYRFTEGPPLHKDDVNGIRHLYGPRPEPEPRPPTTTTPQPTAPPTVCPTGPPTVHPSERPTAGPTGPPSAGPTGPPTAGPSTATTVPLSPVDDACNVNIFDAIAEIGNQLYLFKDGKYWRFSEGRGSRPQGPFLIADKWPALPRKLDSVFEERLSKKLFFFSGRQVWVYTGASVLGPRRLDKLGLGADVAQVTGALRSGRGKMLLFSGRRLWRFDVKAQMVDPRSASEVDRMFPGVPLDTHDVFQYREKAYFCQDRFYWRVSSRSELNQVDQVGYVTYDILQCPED

CC(=O)N[C@@H](CSC1CC(=O)N(CCCCCC(=O)NCCCC(O)(P(=O)(O)O)P(=O)(O)O)C1=O)C(=O)N1CCC[C@H]1C(=O)N[C@@H](CC(C)C)C(=O)NCC(=O)N[C@@H](CC(C)C)C(=O)N[C@@H](Cc1ccc(O)cc1)C(=O)N[C@@H](C)C(=O)N[C@@H](CC(C)C)C(=O)NCCCNCCSP(=O)(O)O (stereo partly drawn) [Conjugate 2] (Ac-C(X1)PLGLYAL-X2)
half-life at 0.898 mg/mL [1]: ~7.5 h
half-life at 3 mg/mL [2]: 4.2 h
30-day survival rate ([3]; 250 mg/kg sc): 68.75%
30-day survival rate ([3]; 500 mg/kg sc): 75%
30-day survival rate ([3]; 600 mg/kg sc): 93.75%
30-day survival rate ([3]; 700 mg/kg sc): 100%

From US20250127799A1, “DRUG CONJUGATES FOR BONE MARROW PROTECTION” (priority 2023, published 2025)
